We go through one compound from US12502393B2, “Dual mode of action soluble guanylate cyclase activators and phosphodiesterase inhibitors and uses thereof” (TOPADUR PHARMA AG, priority 2018, dated 2025).

In series [1] the target is T1, recombinant human (rh) PDE5A (Homo sapiens, UniProt O76074).
T1 construct: GST; purchased SIGMA E9034
Nature of the series: Phosphodiesterase-5 activity assay (radiometric SPA). The format is biochemical. Conditions: rhPDE5A1, 0.5 μM cGMP, 20 min at 37° C.

Series [2] in a line: Human plasma protein binding. The format is in vitro ADME.
The test system of series [3] is Human Trabecular Meshwork Cells. Briefly: Cellular cGMP assay in human trabecular meshwork cells. The format is cell-based. Conditions: 10 μM Riociguat.
The subject of series [4] is Rat aortic smooth muscle cells. Briefly: Cellular cGMP assay in rat aortic smooth muscle cells. The format is cell-based. Conditions: 10 μM Riociguat. On the procedure: Examples (Test compounds) were characterized for their potency and efficacy to elevate cGMP in cellular systems such as human trabecular meshwork cells (Table 3), human platelets (Table 5) and rat aortic smooth muscle cells (Table 4).
Human trabecular meshwork cells (ABC Biopply AG, Solothurn, Switzerland) or rat aortic smooth muscle cells (Sigma Aldrich AG, Buchs, Switzerland) were plated in a 96 well plate precoated with collagen (Collagen Type I solution from rat tail, Sigma; diluted to 0.1 mg/ml) at 20.000 cells per well and grown in corresponding Trabecular Meshwork (ABC Supply AG) or Smooth Muscle (Sigma AG) Growth medium as provided by the manufacturers. After 18 h medium was exchanged and new medium added supplemented with 5 mM GSH. The next day culture medium was exchanged to DMEM with low glucose supplemented with 5 mM GSH. Cells were pre-incubated with 10 μM Riociguat (soluble guanylate cyclase stimulator; Lucerna-Chem AG, Luzern, Switzerland) for 15 min before test or reference compounds or vehicle was added to a final incubation volume of 100 μl per well. At the end of the incubation time (see below) the reaction was terminated by adding HCl (0.16M), IBMX (Isobutylmethylxanthin) (2 mM) in DMSO (2%) to the culture medium, final concentrations per well are given in brackets. Following a 20 sec on a plate shaker (200 rpm) the plate was immediately frozen at −80° C.
(§1) cGMP was determined by a commercially available ELISA kit (Direct cGMP ELISA kit, Enzo Life Sciences AG, Lauren, Switzerland) with a lower detection limit of 0.08 pmol/ml using the acetylation protocol following manufacturer's instructions. Results are given as the means from at least two independent experiments each in triplicate.
(§2) To study concentration-dependent effects on total cGMP test and reference compounds were investigated from 0.1 nM to 1 μM in half-logarithmic steps with an incubation time of 2 h. To examine the time course the incubation times were (min) 10, 30, 60, 90, 120 at 1 μM of test or reference compound.
(§3) Compounds were diluted from stock solutions in DMSO. The final concentration of DMSO in all wells including the vehicle controls was 0.2% for human trabecular meshwork and rat aortic smooth muscle cells and 0.3% for platelets.
(§4) From time course experiments, the time to half of the maximum cGMP increase with 1 μM of test compound has been extrapolated (t0.5max).

The next series has as its system Human Platelets. Nature of the series: Total cGMP in human platelets. The format is cell-based. Here is the method:
Effects of test and reference compounds on total cGMP in human platelets were investigated as described by Dunkern and Hatzelmann (Cell Signal. 17: 331-9, 2005) with modifications. Briefly, buffy coats (acquired form SRK Blutspende Zurich) were 4-fold diluted in 150 mM sodium chloride solution containing 0.9% sodium citrate and centrifuged at 200 g for 10 min. The resulting platelet-rich plasma was supplemented with a 1/10 volume of ACD solution (85 mM sodium citrate, 111 mM D-glucose, 71 mM citric acid, pH 4.4) and apyrase (Sigma AG) to a final concentration of 2 U/ml. After another centrifugation (1400 g, 10 min) the cellular pellet was resuspended in Ca2+/Mg2+-free Hepes-Tyrode buffer (134 mM NaCl, 12 mM NaHCO3, 2.9 mM KCl, 0.36 mM NaH2PO4, 5 mM HEPES, 5 mM glucose, 0.5% (w/v) bovine serum albumin, pH 7.4) and platelets were counted.
Platelets were used at 9×10^7 cells in 100 μl per well and after adding test and reference compounds the incubation volume was 200 μl per well in Hepes-Tyrode. Experiments in platelets were done in presence of 1 μM riociguat and 100 nM BAY 190954 (PDE2 inhibitor) (Lucerna Chem AG) and test/reference compounds were added after a preincubation time of 15 min. At the end of the incubation time (see below) the reaction was terminated by adding 20 μl of 2N HCl per well. Following a 20 sec on a plate shaker (300 rpm) the plate was left for 15 min and then centrifuged at 1000×g for 5 min. Supernatants were stored at −80° C.
as §1, §2, §3, §4

Series [5] has as its system Human Pulmonary Artery Smooth Muscle Cells (hPASMC). Briefly: cGMP in human pulmonary artery smooth muscle cells (hPASMC). The format is cell-based. Conditions: 30 min incubation, FIG. 4. Here is the method: Human Pulmonary Artery Smooth Muscle Cells (hPASMC) were purchased from Clonetics™ Lonza (Lonza, reference number CC-2581) and cultured in Clonetics™ smooth muscle growth medium (Clonetics™ SmGM™-2 with BulletKit™ growth factor supplements (Lonza, reference number CC-3182) at 37° C. in 5% CO2. Culture medium was replaced each 48 hours. Cells were grown in 75 cm^2 culture plates.
48 h before the experiments, cells were trypsinized (Trypsin kit One ReagentPack™ (CC-5034), Lonza) and plated in 96 well plates precoated with collagen I at 10000 cells per well. 24 h before the experiments culture medium was replaced by serum-reduced (0.5% FBS) medium.
Measurements of intracellular cGMP were performed using the Amersham cGMP EIA System (GE Healthcare, RPN226) following the instructions of the manufacturer. The assay has a sensitivity of 2 fmol cGMP per well. Briefly, incubations were terminated by adding Amersham's lysis buffer 1 and cells left for 10 min under agitation to ensure complete lysis. cGMP in samples was then acetylated using triethylamine and acetic anhydride and determined by a competitive ELISA. The ELISA is based on the competition between acetylated cGMP in cell culture lysates and a peroxidase-labelled cGMP conjugate for limited binding sites on a cGMP specific antiserum immobilized on pre-coated 96 well MTP. cGMP was determined based on a standard curve. […]

Take `CCCc1nc(C)c2c(=O)[nH]c(-c3cc(S(=O)(=O)N4CCC([C@H](CO[N+](=O)[O-])O[N+](=O)[O-])CC4)ccc3OCC)nn12` [Compound 2a, (R)-1-(1-((4-ethoxy-3-(5-methyl-4-oxo-7-propyl-3,4-dihydroimidazo[5,1-f][1,2,4]triazin-2-yl)phenyl)sulfonyl)piperidin-4-yl)ethane-1,2-diyl dinitrate]: the IC50 in series [1] stood at 0.42 nM. The “% Bound in human plasma” value in series [2] is recorded as 99.80%. Moreover, in series [2] (human, read-out: % Unbound in human plasma), the fraction unbound is 0.002. Moreover, the “Concentration (nM) for 3-fold or 2-fold* cGMP increase vs Baseline” value in series [3] (3-fold increase (values without asterisk), HTMC) is 4.2 nM. For the same compound, the “Ratio Maximum cGMP increase vs Baseline” value was determined as 101.7 in series [3] (HTMC, 5 mM GSH, incubation 2 h); 10.58 in series [4] (5 mM GSH, incubation 2 h); 152.5 in the series with Human Platelets (1 μM riociguat and 100 nM BAY 190954, incubation 2 h). In series [3] (HTMC, FIG. 3A and FIG. 3B), the “effect to elevate cGMP in HTMC compared with organic nitrate ester ITN and PDE5 inhibitors sildenafil or vardenafil” value was “over-additive effects”. For the same compound, the “concentration equipotent to ITN & Vardenafil to elevate cGMP in HTMC” value came out at 2.6 nM in series [3] (equipotent to 1 μM ITN & 1 μM Vardenafil) and 12.4 nM in series [3] (equipotent to 10 μM ITN & 1 μM Vardenafil). Further, the “concentration equipotent to ITN & Sildenafil to elevate cGMP in HTMC” value is 10.6 nM in series [3] (first value of pair 10.6 nM/50.8 nM, printed against 10 μM ITN & 1 μM Sildenafil) and 50.8 nM in series [3] (second value of pair 10.6 nM/50.8 nM, equipotent to 10 μM ITN & 1 μM Sildenafil). The “Concentration (nM) for 3-fold cGMP increase vs Baseline” value in series [4] amounted to 293 nM. In addition, the “Concentration (nM) for 3-fold cGMP or 2-fold* increase vs Baseline” value in the series on Human Platelets (3-fold increase (values without asterisk), 1 μM riociguat, 100 nM BAY 190954) was 3.3 nM. For the same compound, the “efficacy in increasing cGMP level as compared to the reference inhibitor vardenafil” value in series [5] is listed as “significantly higher efficacy”.

For orientation: IC50 means the midpoint of a concentration-inhibition curve.
